Data reported in US11214779B2, “Activatable CRISPR/CAS9 for spatial and temporal control of genome editing” (University of Pittsburgh—Of the Commonwealth System of …, priority 2015, dated 2022).

System: pIRG dual reporter in HEK 293T cells
Assay: Small molecule activation of Cas9-OABK in live cells (DsRed/EGFP dual reporter assay)
Format: cell-based, human
Conditions: for Concentration dependence of EGFP expression (activation of gene editing): varying concentrations (0-500 μM) of phosphine, Cas9-OABK
Protocol: HEK 293T cells were seeded into a 96-well cell culture microplate (Greiner), and incubated overnight in DMEM growth media supplemented with 10% FBS and 1% penicillin/streptomycin at 37° C. in 5% CO2 humidified atmosphere. Before transfection, media was replaced with antibiotics-free DMEM supplemented with or without OABK (0.25 mM). Quadruple transfections were carried out with linear PEI using pMbOABKRS-wtCas9 or pMbOABKRS-Cas9-K866TAG, p4CMVE-U6-PylT (Gautier et al., J Am Chem Soc 132, 4086-4088, 2010), gRNA plasmids (Hemphill et al., J Am Chem Soc 137, 5642-5645, 2015), and pRG dual reporter plasmid ((Hemphill et al., J Am Chem Soc 137, 5642-5645, 2015)) (100 ng of each). After a 24 h incubation, cells were washed with fresh DMEM and incubated for 2 h. For regulating gene editing in live cells, HEK 293T cells were treated with 5 (0.5 mM) or without 5. After overnight incubation, media was replaced with DMEM without phenol red, and cells were imaged on a Zeiss Observer Z1 microscope (10× objective, NA 0.8 plan-apochromat) with EGFP BP470/40; Em: BP525/50) and DsRed BP550/25; Em: BP605/70) filter cubes. Fluorescent cell counting was performed on a Nikon A1 confocal microscope (10× objective) and analyzed using Elements software.
The function of Cas9-OABK in the absence and presence of phosphine derivatives 5 and 6 (see FIG. 14) was investigated using a DsRed/EGFP dual reporter assay (FIG. 15A). […] Once Cas9-OABK is activated by the small molecule phosphine, the complex of functional Cas9 and gRNAs induces excision of the DsRed-terminator cassette, followed by NHEJ repair, and leading to EGFP expression.

| SMILES | Concentration dependence of EGFP expression (activation of gene editing) | Effective concentration of phosphine for activation of Cas9-OABK (live HEK 293T cells, concentrations 0-500 μM tested) [µM] |
| --- | --- | --- |
| O=C(O)c1ccccc1P(c1ccccc1)c1ccccc1 [compound 5, 2-(diphenylphosphino)benzoic acid] | dose-dependent |  |
| NC(=O)c1ccccc1P(c1ccccc1)c1ccccc1 [compound 6, 2-(diphenylphosphino)benzamide] | dose-dependent | 25 |
